The results in this text go back to patent US5070207A, “Phospholipase A2 inhibitors” (American Home Products Corporation, priority 1990, dated 1991).

One assay deals with T1, Human Synovial PLA2 (Homo sapiens, UniProt P14555).
T1 construct: b) Purified human synovial fluid; from tissue; host or cells: human synovial fluid (purified)
T1 sequence (P14555 21-144): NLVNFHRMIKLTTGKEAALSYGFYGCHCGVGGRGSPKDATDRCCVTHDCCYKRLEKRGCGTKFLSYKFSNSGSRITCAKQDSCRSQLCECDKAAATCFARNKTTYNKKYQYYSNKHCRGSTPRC
Nature of the assay: in vitro isolated phospholipase A2 assay, human synovial fluid PLA2. The format is biochemical. To be noted: for inhibition at 10 µM: read-out: % Inhibition at 10 μM HSF. As for the experimental part:
(§1) The compounds of the invention are tested in an in vitro isolated phospholipase A2 assay to determine the ability of the test compounds to inhibit the release of arachidonic acid from an arachidonic acid-containing substrate by the action of phospholipase A2 enzyme from human and non-human sources.
(§2) Into a 15 mL polypropylene tube are added the following:
(§3) ^6 Two human PLA2 enzymes are used:
b) Purified human synovial fluid.
(§4) Incubate the 100 μL reaction mixture for 10 minutes at 37° C. in a shaking water bath. The reaction is terminated by the addition of 2 mL tetrahydrofuran, followed by vortexing. NH2 columns (100 μg/mL-Analytichem International) are conditioned with 0.5 mL tetrahydrofuran followed by 0.5 mL tetrahydrofuran/water (2 mL:0.1 mL, v/v).
(§5) The sample is loaded onto the columns and slowly drawn through them. The hydrolyzed arachidonic acid retained in the columns is eluted therefrom with 1 mL tetrahydrofuran/glacial acetic acid (2%). The arachidonic acid is transferred to scintillation vials and quantitated by β-counting analysis. A "total counts" sample is prepared by pipetting 25 μL ^3 H-arachidonate E. coli directly into a scintillation vial to which is added 1 mL tetrahydrofuran. 10 mL aquasol (scintillation cocktail) is added to all samples.

The next assay addresses T2, Human Platelet PLA2 (Homo sapiens, UniProt P14555).
T2 construct: a) Semipurified human platelet acid extract PLA2 (in 10 mM sodium; from tissue; host or cells: human platelets (acid extract, semipurified)
T2 sequence (P14555 21-144): T1 sequence (P14555 21-144)
Kind of assay: in vitro isolated phospholipase A2 assay, human platelet PLA2. The assay is classed as biochemical. The conditions noted are these: for inhibition at 10 µM: read-out: % Inhibition at 10 μM HP. As for the experimental part:
as §1, §2, §3
a) Semipurified human platelet acid extract PLA2 (in 10 mM sodium
acetate buffer, pH 4.5). Remove protein precipitate by centrifugation at
about 2200 rpm for 10 minutes.
as §4, §5

Assay [1] has as its system LTC4 (lipoxygenase pathway). Nature of the assay: in vivo murine zymosan peritonitis assay, LTC4. Set-up: species or system mouse (male CD-1). To be noted: for ED50: Mus musculus, po, standard drugs. As for the experimental part: (§6) The compounds of the invention are evaluated for their ability to inhibit the lipoxygenase and/or cyclooxygenase pathways of arachidonic acid metabolism in the in vivo murine zymosan peritonitis assay.
(§7) Male CD-1 mice (8 weeks old) are placed in plastic boxes in groups of six. Animals are injected with 1 mL i.p. of either 1% zymosan in pyrogen free 0.9% saline or saline (unstimulated control). Compounds are dosed orally 1 hour prior to zymosan injection. Twenty minutes after zymosan injection, the mice are asphyxiated by CO2 inhalation and the peritoneal cavity is lavaged with 2 mL ice cold Hanks Balanced Salt Solution (HBSS) without CaCl2, MgSO4 . 7H2 O and MgCl2 . 6H2 O. Peritoneal lavage fluid from each mouse is removed by syringe and placed in 5 mL plastic test tubes put on ice and volume is noted. Preparation of samples for evaluation by ELISA is as follows: Samples are centrifuged at 800 xg for 15 minutes; 1 mL of the supernatant is added to 8 mL ice cold methanol and kept at -70° C. overnight to precipitate protein; and samples are then centrifuged at 800 xg for 15 minutes, followed by a drying procedure in a Savant speed vac concentrator. The samples are reconstituted with 1 mL ice cold ELISA buffer and stored at -70° C. until assayed. The assay for eicosanoids (LTC4 and 6-keto-PGF1α) is performed according to conventional ELISA procedures.
(§8) Compounds to be tested orally are suspended in 0.5% Tween 80. Compounds to be tested intraperitoneally are suspended in 0.5% methylcellulose in 0.9% saline.
(§9) The total metabolite level in lavage fluid/mouse is calculated and the significance is determined by a one-way analysis of variance with LSD comparisons to control (p≤0.05). Drug effects are expressed as a percent change from control values.

The test system of assay [2] is LTB4 synthesis by rat glycogen-elicited polymorphonuclear leukocytes (PMN). Nature of the assay: inhibition of LTB4 synthesis by rat glycogen-elicited polymorphonuclear leukocytes. To be noted: Leukocyte. The assay is classed as cell-based. As for the experimental part: Roy. Soc. Med., 74, 831 (1981)]. […] Accordingly, the specificity of action of PLA2 inhibitors can be determined by the activity of test compounds in this assay, which measures the ability of compounds to inhibit the synthesis of LTB4 by rat glycogen-elicited polymorphonuclear leukocytes (PMN) in the presence of exogenous substrate. […] The exudate is centrifuged at 400 xg for 10 minutes. The supernatant fluid is discarded and the cell pellet is resuspended to a concentration of 2.0×10^7 cells/mL in HBSS containing Ca^++ and Mg^++ and 10 μM L-cysteine. […] The reaction is terminated by centrifugation and pelleting cells. Supernatants are then analyzed by HPLC analysis on a 15 cm×4.6 mm ID supelcosil LC-18 (Supelco)(3M) column, using a two solvent system at a flow rate of 1.4 mL total flow as follows: Solvent A: 70:30 17.4 mM H3 PO4 :CH3 CN Solvent B. CH3 CN Gradient: (system is equilibrated with Solvent A) Percent solvent changes are accomplished in a linear fashion. […] 10^4 -2.0×10^4 dpm of eicosanoids of interest are injected in 90 μL EtOH cocktail. […] Results are expressed as percent inhibition at a given compound dose or as an IC50 value.

Assay [3] has as its system T×B2 synthesis by rat glycogen-elicited polymorphonuclear leukocytes (PMN). Nature of the assay: inhibition of synthesis of the cyclooxygenase product TxB2 by rat polymorphonuclear leukocytes. The conditions noted are these: Leukocyte. The assay is classed as cell-based. As for the experimental part: The exudate is centrifuged at 400 xg for 10 minutes. The supernatant fluid is discarded and the cell pellet is resuspended to a concentration of 2.0×10^7 cells/mL in HBSS containing Ca^++ and Mg^++ and 10 μM L-cysteine. […] The reaction is terminated by centrifugation and pelleting cells. Supernatants are then analyzed by HPLC analysis on a 15 cm×4.6 mm ID supelcosil LC-18 (Supelco)(3M) column, using a two solvent system at a flow rate of 1.4 mL total flow as follows: […] In this assay, the procedure of Example 14 is carried out as described. […] The results are calculated as in Example 14 and presented below: […]

Assay [4] concerns 6-keto-PGF1α /TxB2 (cyclooxygenase pathway). Nature of the assay: in vivo murine zymosan peritonitis assay, 6-keto-PGF1α /TxB2. Set-up: species or system mouse (male CD-1). To be noted: for ED50: Mus musculus, po, read-out: ED50 6-keto-PGF1α /TxB2. As for the experimental part: as §6, §7, §8, §9
Setting [5] is: human synovial fluid, read-out: IC50 HSF.

Like-named read-outs stand apart in the source and are kept apart here.

Turning to `CCCCC/C=C\C/C=C\C/C=C\C/C=C\CCCC(=O)O` [Arachidonic Acid, reference compound], the results for the concentration for half-maximal inhibition (IC50) against Human Synovial PLA2 and against Human Platelet PLA2 were 3200 nM and 8600 nM, respectively.

`NC1=NN(c2cccc(C(F)(F)F)c2)CC1` [BW755C] had an ED50 in assay [1] of less than 10 mg/kg.

In the case of `O=C(C#CCCCOc1ccc(Cl)cc1)C(F)(F)F` [Example 1, 7-(4-Chlorophenoxy)-1,1,1-trifluoro-3-heptyn-2-one], the results for the inhibition at 10 µM in assay [2] and in assay [3] were 89.8% and 24%, respectively. Besides, the “% Inhibition 6-keto-PGF” value in assay [4] (100 mg/kg p.o.) worked out at 15%. The “% Inhibition LTC4” value in assay [1] (100 mg/kg p.o.) came to 32%. Moreover, the IC50 at Human Synovial PLA2 (setting [5]) was 490 nM. Besides, on Human Platelet PLA2 (at 50 μM, human platelet, read-out: % Inhibition HP), the inhibition at 50 µM was found to be 54%.

`O=C(C#CCCCn1c2ccccc2c2ccccc21)C(F)(F)F` [Example 2, 7-(9H-Carbazol-9-yl)-1,1,1-trifluoro-3-heptyn-2-one]: the IC50 at Human Synovial PLA2 (setting [5]) is 43 nM. Further, at Human Platelet PLA2 (human platelet), the inhibition at 10 µM turned out to be 7.2%.

`O=C(C#CCCCOc1ccc(F)cc1)C(F)(F)F` [Example 3, 1,1,1-Trifluoro-7-(4-fluorophenoxy)-3-heptyn-2-one]: the IC50 on Human Synovial PLA2 (setting [5]) was found to be 8900 nM.

Turning to `CC(C)(C)c1ccc(OCCCC#CC(=O)C(F)(F)F)cc1` [Example 4, 7-[4-(1,1-Dimethylethyl)phenoxy]-1,1,1-trifluoro-3-heptyn-2-one], the IC50 at Human Synovial PLA2 (setting [5]) amounted to 200 nM.

`COc1ccc(OCCCC#CC(=O)C(F)(F)F)cc1` [Example 5, 1,1,1-Trifluoro-7-(4-methoxyphenoxy)-3-heptyn-2-one]: at Human Synovial PLA2 (human synovial fluid), the inhibition at 10 µM came out at 38.7%.

For `O=C(C#CCCCN1c2cccc3cccc(c23)S1(=O)=O)C(F)(F)F` [Example 6, 1,1,1-Trifluoro-7-(2H-naphth[1,8-cd]isothiazol-2-yl)-3-heptyn-2-one S,S-dioxide], the inhibition at 10 µM at Human Synovial PLA2 (human synovial fluid) stood at 84.8%.

In the case of `O=C(C#CCCCOc1ccc(Cl)cc1)C(F)(F)CCc1ccccc1` [Example 7, 9-(4-Chlorophenoxy)-3,3-difluoro-1-phenyl-5-nonyn-4-one], the inhibition at 10 µM in assay [2] turned out to be 72%; in assay [3] it was 40%. Further, on Human Synovial PLA2 (setting [5]), the concentration for half-maximal inhibition (IC50) came to 900 nM.

Consider `O=C(C#CCCCOc1cccc(C(F)(F)F)c1)C(F)(F)F` [Example 8, 1,1,1-Trifluoro-7-[3-(trifluoromethyl)phenoxy]-3-heptyn-2-one], for which, on Human Synovial PLA2 (human synovial fluid), the inhibition at 10 µM came out at 90.5%.

`CC(C)(C#CC(=O)C(F)(F)F)CCOc1ccc(Cl)cc1` [Example 9, 7-(4-Chlorophenoxy)-5,5-dimethyl-1,1,1-trifluoro-3-heptyne-2-one]: the inhibition at 10 µM at Human Synovial PLA2 (human synovial fluid) is 19.8%.

Take `O=C(C#CCCCCOc1ccc(Cl)cc1)C(F)(F)F` [Example 10, 8-(4-Chlorophenoxy)-1,1,1-trifluoro-3-octyn-2-one]: the inhibition at 10 µM at Human Synovial PLA2 (human synovial fluid) was 94.2%.

Consider `O=C(C#CCCCOc1ccc(Cl)c2ccccc12)C(F)(F)F` [Example 11, 7-[(4-Chloro-1-naphthalenyl)oxy]-1,1,1-trifluoro-3-heptyn-2-one], for which the figures for the inhibition at 10 µM at Human Synovial PLA2 (human synovial fluid) and at Human Platelet PLA2 (human platelet) were 94.6% and 26.5%, respectively.

As for `CC(C)(C#CC(=O)C(F)(F)F)Oc1ccc(OC(F)(F)F)cc1` [Example 12, 1,1,1-Trifluoro-5-methyl-5-[4-(trifluoromethoxy)phenoxy]-3-hexyn-2-one], the inhibition at 10 µM at Human Synovial PLA2 (human synovial fluid) came out at 58.8%.

As for `CC(C)Cc1ccc(C(C)C(=O)O)cc1` (stereo not drawn) [Ibuprofen], the ED50 in assay [4] (standard drugs) was determined as 7 mg/kg.

Regarding `COc1ccc2c(c1)c(CC(=O)O)c(C)n2C(=O)c1ccc(Cl)cc1` [Indomethacin], the ED50 in assay [4] amounted to 0.126 mg/kg.

`CC(=CCCC1=CCC(C2=CC(=O)OC2O)OC1O)CCC1=C(C)CCCC1(C)C` (stereo not drawn) [Monoalide, reference compound]: the half-maximal inhibitory concentration (IC50) at Human Synovial PLA2 stood at 140 nM; against Human Platelet PLA2, 25200 nM.

For the compound `O=C1CCN(c2ccccc2)N1` [Phenidone], the ED50 is less than 30 mg/kg in assay [4] (standard drugs) and 24 mg/kg in assay [1].
